One molecule from US20030036524A1, “Method of sensitising endothelial cells to prodrugs” (priority 2000, published 2003) can be followed below.

The experiment deals with HUVEC cells. The experiment is described as follows: Functional bio-assay: endothelial cell proliferation of Ad5C2B1-infected HUVEC cells treated with ifosfamide, crystal-violet cell number. It is filed as cell-based, human. Conditions: day 8. How it is done:
To test the bioactivity of the CYP2B1 transgene, human umbilical vein […] (HUVEC) cells [Jaffe et al.; J. Clin. Invest.
HUVEC cells were infected with Ad5C2B1 on day 2 with concentrations ranging from 0 to 2×10^8 PFU/ml for 2 hours.
The cells were seeded at 40.000 cells/well at day 3 (some wells were not sub-cultured but saved for cell extracts and medium collection at day 4).
HUVEC cells were grown on gelatin-coated tissue culture dishes in medium 199 (Biowhitakker), supplemented with 10% (vol/vol) human serum, 10% (v/v) heat-inactivated newborn calf serum (Biowhitakker), 5 U/mL of heparin (Leo Pharma BV), […] of crude EC growth factor (TNO-PG, Leiden), 100 U/mL of penicillin, and […] of streptomycin (Biowhitakker). Cells were grown at 37° C. in a humid atmosphere with 5% (vol/vol) CO2.
Cell numbers were determined at day 8 using crystal-violet staining and optical density measurement.
To quantify the effect off viral infection and prodrug treatment the cells numbers were determined as described above.

For the molecule `O=P1(NCCCl)OCCCN1CCCl` (stereo not drawn) [Ifosfamide, ifosfamide], the “Number of Cells” value (Virus 0 PFU/ml, Ifosfamide 0.0625 mM) is on record as 152000; the “Number of Cells” value (Virus 0 PFU/ml, Ifosfamide 0.125 mM) is recorded as 151600; the “Number of Cells” value (Virus 0 PFU/ml, Ifosfamide 0.25 mM) was 152500; the “Number of Cells” value (Virus 0 PFU/ml, Ifosfamide 0.50 mM) is on record as 116000; the “Number of Cells” value (Virus 1 × 10^8 PFU/ml, Ifosfamide 0.0625 mM) stood at 80500; the “Number of Cells” value (Virus 1 × 10^8 PFU/ml, Ifosfamide 0.125 mM) stood at 63600. Moreover, the “Number of Cells” value by setting is: (Virus 1 × 10^8 PFU/ml, Ifosfamide 0.25 mM) 66000; (Virus 1 × 10^8 PFU/ml, Ifosfamide 0.50 mM) 38500; (Virus 1.25 × 10^7 PFU/ml, Ifosfamide 0.0625 mM) 98000; (Virus 1.25 × 10^7 PFU/ml, Ifosfamide 0.125 mM) 110000; (Virus 1.25 × 10^7 PFU/ml, Ifosfamide 0.25 mM) 102000; (Virus 1.25 × 10^7 PFU/ml, Ifosfamide 0.50 mM) 85000. Moreover, the “Number of Cells” value (Virus 2 × 10^8 PFU/ml, Ifosfamide 0.0625 mM) worked out at 60000; the “Number of Cells” value (Virus 2 × 10^8 PFU/ml, Ifosfamide 0.125 mM) is 54000; the “Number of Cells” value (Virus 2 × 10^8 PFU/ml, Ifosfamide 0.25 mM) is reported as 53000; the “Number of Cells” value (Virus 2 × 10^8 PFU/ml, Ifosfamide 0.50 mM) was found to be 30000; the “Number of Cells” value (Virus 2.5 × 10^7 PFU/ml, Ifosfamide 0.0625 mM) amounted to 88000; the “Number of Cells” value (Virus 2.5 × 10^7 PFU/ml, Ifosfamide 0.125 mM) was determined as 85000. Moreover, the “Number of Cells” value reads like this: (Virus 2.5 × 10^7 PFU/ml, Ifosfamide 0.25 mM) 79200; (Virus 2.5 × 10^7 PFU/ml, Ifosfamide 0.50 mM) 56000; (Virus 5 × 10^7 PFU/ml, Ifosfamide 0.0625 mM) 87000; (Virus 5 × 10^7 PFU/ml, Ifosfamide 0.125 mM) 85000; (Virus 5 × 10^7 PFU/ml, Ifosfamide 0.25 mM) 75000; (Virus 5 × 10^7 PFU/ml, Ifosfamide 0.50 mM) 55000.
